Among the data in patent US7446102B2, “Antibacterial amide macrocycles IV” (priority 2004, dated 2008) are MIC and resistance rate values, retold here.

Counter-ions that a name gives are not always drawn. Like-named read-outs stand apart in the source and are kept apart here.

Common to all, as to assay type: cell-based
In test [1] the test system is S. aureus 133. The test can be described thus: Determination of the minimum inhibitory concentration (MIC), S. aureus 133. As to conditions: Staphylococcus aureus, 133, read-out: MIC S. aureus 133. The method, then: (§1) Determination of the Minimum Inhibitory Concentration (MIC)
(§2) The minimum inhibitory concentration (MIC) is the minimum concentration of an antibiotic with which the growth of a test microbe is inhibited over 18-24 h. The inhibitor concentration can in these cases be determined by standard microbiological methods (see, for example, The National Committee for Clinical Laboratory Standards. Methods for dilution antimicrobial susceptibility tests for bacteria that grow aerobically; approved standard-fifth edition. NCCLS document M7-A5 [ISBN 1-56238-394-9]. NCCLS, 940 West Valley Road, Suite 1400, Wayne, Pa. 19087-1898 USA, 2000). The MIC of the compounds of the invention is determined in the liquid dilution test on the 96-well microtitre plate scale. The bacterial microbes are cultivated in a minimal medium (18.5 mM Na2HPO4, 5.7 mM KH2PO4, 9.3 mM NH4Cl, 2.8 mM MgSO4, 17.1 mM NaCl, 0.033 μg/ml thiamine hydrochloride, 1.2 μg/ml nicotinic acid, 0.003 μg/ml biotin, 1% glucose, 25 μg/ml of each proteinogenic amino acid with the exception of phenylalanine; [H.-P. Kroll; unpublished]) with the addition of 0.4% BH broth (test medium). In the case of Enterococcus facium L4001, heat-inactivated fetal calf serum (FCS; GibcoBRL, Germany) is added to the test medium in a final concentration of 10%. Overnight cultures of the test microbes are diluted to an OD578 of 0.001 (to 0.01 in the case of enterococci) in fresh test medium, and incubated 1:1 with dilutions of the test substances (1:2 dilution steps) in test medium (200 μl final volume). The cultures are incubated at 37° C. for 18-24 hours; enterococci in the presence of 5% CO2.
(§3) The lowest substance concentration in each case at which no visible bacterial growth occurred any more is defined as the MIC.
(§4) Alternative Method for Determining the Minimum Inhibitory Concentration (MIC)
(§5) The minimum inhibitory concentration (MIC) is the minimum concentration of an antibiotic with which the growth of a test microbe is inhibited over 18-24 h. The inhibitor concentration can in these cases be determined by standard microbiological methods with modified medium in an agar dilution test (see, for example, The National Committee for Clinical Laboratory Standards. Methods for dilution antimicrobial susceptibility tests for bacteria that grow aerobically; approved standard-fifth edition. NCCLS document M7-A5 [ISBN 1-56238-394-9]. NCCLS, 940 West Valley Road, Suite 1400, Wayne, Pa. 19087-1898 USA, 2000). The bacterial microbes are cultivated on 1.5% agar plates which contain 20% defibrinated horse blood. The test microbes, which are incubated overnight on Columbia blood agar plates (Becton-Dickinson), are diluted in PBS, adjusted to a microbe count of about […] and placed dropwise (1-3 μl) on test plates. The test substances comprise different dilutions of the test substances (1:2 dilution steps). The cultures are incubated at 37° C. in the presence of 5% CO2 for 18-24 hours.
(§6) The lowest substance concentration in each case at which no visible bacterial growth occurred any more is defined as the MIC and is reported in μg/ml.

The test system of test [2] is S. aureus RN4220Bi^R. The test can be described thus: MIC on biphenomycin-resistant S. aureus RN4220Bi^R. As to conditions: Staphylococcus aureus, read-out: MIC, selected colony (strain RN4220Bi^R). On the procedure: (§7) The S. aureus strain RN4220Bi^R is isolated in vitro. For this purpose, 100 μl portions of an S. aureus RN4220 cell suspension (about 1.2×10^8 cfu/ml) are plated out on an antibiotics-free agar plate (18.5 mM Na2HPO4, 5.7 mM KH2PO4, 9.3 mM NH4Cl, 2.8 mM MgSO4, 17.1 mM NaCl, 0.033 μg/ml thiamine hydrochloride, 1.2 μg/ml nicotinic acid, 0.003 μg/ml biotin, 1% glucose, 25 μg/ml of each proteinogenic amino acid with the addition of 0.4% BH broth and 1% agarose) and on an agar plate containing 2 μg/ml biphenomycin B (10×MIC), and incubated at 37° C. overnight. Whereas about 1×10^7 cells grow on the antibiotics-free plate, about 100 colonies grow on the antibiotics-containing plate, corresponding to a resistance rate of 1×10^−5. Some of the colonies grown on the antibiotics-containing plate are tested for the biphenomycin B MIC. One colony with an MIC of >50 μM is selected for further use, and the strain is referred to as RN4220Bi^R.

Test [3] relates to S. aureus T17. The test can be described thus: Determination of the minimum inhibitory concentration (MIC), biphenomycin-resistant S. aureus T17. The following applies: Staphylococcus aureus. On the procedure:
as §1, §2, §3, §4, §5, §6
The S. aureus strain T17 is isolated in vivo. CFW1 mice are infected intraperitoneally with 4×10^7 S. aureus 133 cells per mouse. 0.5 h after the infection, the animals are treated intravenously with 50 mg/kg biphenomycin B. The kidneys are removed from the surviving animals on day 3 after the infection. After homogenization of the organs, the homogenates are plated out as described for RN4220Bi^R on antibiotics-free and antibiotics-containing agar plates and incubated at 37° C. overnight. […] About 20 of these colonies are tested for the biphenomycin B MIC, and a colony with an MIC of >50 μM is selected for further cultivation, and the strain is referred to as T17.

Test [4] has as its system E. faecium L4001. The test can be described thus: Determination of the minimum inhibitory concentration (MIC), E. faecium L4001. The following applies: Enterococcus faecium, L4001, read-out: MIC E. faecium L4001. On the procedure:
as §1, §2, §3, §4, §5, §6

The subject of test [5] is S. aureus RN4220. The test can be described thus: Isolation of biphenomycin-resistant strain from S. aureus RN4220: resistance rate on biphenomycin B agar. As to conditions: S. aureus RN4220 on agar plate containing 2 μg/ml biphenomycin B (10×MIC), 37° C. overnight. The method, then:
Isolation of the Biphenomycin-Resistant S. aureus Strains RN4220Bi^R and T17
as §7

Turning to `NC[C@H](O)C[C@@H]1NC(=O)[C@@H](N)Cc2cc(ccc2O)-c2ccc(O)c(c2)C[C@@H](C(=O)O)NC1=O` [Example 20A, 14(S)-Amino-11(S)-(3-amino-2(R)-hydroxypropyl)-5,17-dihydroxy-10,13-dioxo-9,12-diazatricyclo[14.3.1.1^2,6]henicosa-1(19),2,4,6(21),16(20),17-hexaene-8(S)-carboxylic acid dihydrochloride, reference compound], the MIC (commonly the smallest concentration in the dilution series that meets the test's criterion for growth inhibition) was under 0.03 µg/mL in test [1]; over 50 µM in test [2]; over 32 µg/mL in test [3] (biphenomycin-resistant strain, no visible bacterial growth, 18-24 h, 37° C., read-out: MIC S. aureus T17); over 50 µM in test [3] (colony isolated from kidney of mice treated with 50 mg/kg biphenomycin B, read-out: MIC, selected colony (strain T17)); 0.5 µg/mL in test [4]. The resistance rate in test [5] is on record as 1×10^−5.
